Laboratory results taken from patent US20180325914A1, “INCREASING STORAGE OF VITAMIN A, VITAMIN D AND/OR LIPIDS” (Salk Institute for Biological Studies, priority 2014, published 2018).

Test system: primary HSCs
[1] = mRNA-Seq expression, primary HSCs, day 6 with JQ1

Cc1sc2c(c1C)C(c1ccc(Cl)cc1)=N[C@@H](CC(=O)OC(C)(C)C)c1nnc(C)n1-2 [JQ1, (S)-tert-butyl 2-(4-(4-chlorophenyl)-2,3,9-trimethyl-6H-thieno[3,2-f][1,2,4]triazolo[4,3-a][1,4]diazepin-6-yl)acetate]
Elfn1 value_2 (Day_6_JQ1) [1]: 0.4141
Eln value_2 (Day_6_JQ1) [1]: 0.6077
Esrp2 value_2 (Day_6_JQ1) [1]: 0.7459
Etv4 value_2 (Day_6_JQ1) [1]: 1.116
F3 value_2 (Day_6_JQ1) [1]: 32.9312
Fam132b value_2 (Day_6_JQ1) [1]: 0.6136
Fam198b value_2 (Day_6_JQ1) [1]: 1.907
Fblim1 value_2 (Day_6_JQ1) [1]: 12.2302
Fibin value_2 (Day_6_JQ1) [1]: 1.847
Fkbp10 value_2 (Day_6_JQ1) [1]: 27.4534
Fkbp11 value_2 (Day_6_JQ1) [1]: 6.955
Fst value_2 (Day_6_JQ1) [1]: 3.079
Fxyd6 value_2 (Day_6_JQ1) [1]: 0.9921
Gbx2 value_2 (Day_6_JQ1) [1]: 0.4331
Gjb3 value_2 (Day_6_JQ1) [1]: 0.08229
Gjb5 value_2 (Day_6_JQ1) [1]: 0.1388
Gm12824 value_2 (Day_6_JQ1) [1]: 0.8107
Gpr176 value_2 (Day_6_JQ1) [1]: 5.413
Has2 value_2 (Day_6_JQ1) [1]: 1.812
Hebp2 value_2 (Day_6_JQ1) [1]: 0.7684
Hhipl1 value_2 (Day_6_JQ1) [1]: 0.517
Hsd11b1 value_2 (Day_6_JQ1) [1]: 3.839
Hspb2 value_2 (Day_6_JQ1) [1]: 6.826
Hspb7 value_2 (Day_6_JQ1) [1]: 0.2986
Htra3 value_2 (Day_6_JQ1) [1]: 1.896
Ivl value_2 (Day_6_JQ1) [1]: 0.5056
Jph2 value_2 (Day_6_JQ1) [1]: 3.451
Kcnmb1 value_2 (Day_6_JQ1) [1]: 0.01726
Kctd15 value_2 (Day_6_JQ1) [1]: 1.124
Lmod1 value_2 (Day_6_JQ1) [1]: 5.533
Lox14 value_2 (Day_6_JQ1) [1]: 6.181
Lox value_2 (Day_6_JQ1) [1]: 102.497
Ltbp1 value_2 (Day_6_JQ1) [1]: 3.833
Ltbp2 value_2 (Day_6_JQ1) [1]: 4.7344
Mfap4 value_2 (Day_6_JQ1) [1]: 0.2994
Mfap5 value_2 (Day_6_JQ1) [1]: 1.011
Mgp value_2 (Day_6_JQ1) [1]: 22.5571
Mmp23 value_2 (Day_6_JQ1) [1]: 6.014
Mrap value_2 (Day_6_JQ1) [1]: 0.2549
Mrgprf value_2 (Day_6_JQ1) [1]: 1.3677
Myl9 value_2 (Day_6_JQ1) [1]: 142.669
Naalad2 value_2 (Day_6_JQ1) [1]: 0.9739
Nfatc4 value_2 (Day_6_JQ1) [1]: 2.235
Npr3 value_2 (Day_6_JQ1) [1]: 8.408
Olfm2 value_2 (Day_6_JQ1) [1]: 0.8372
P2ry14 value_2 (Day_6_JQ1) [1]: 6.946
P4ha3 value_2 (Day_6_JQ1) [1]: 1.335
Pappa value_2 (Day_6_JQ1) [1]: 0.6606
Pdgfc value_2 (Day_6_JQ1) [1]: 1.527
Pdgfrl value_2 (Day_6_JQ1) [1]: 0.4741
Pdlim3 value_2 (Day_6_JQ1) [1]: 0.5953
Pla1a value_2 (Day_6_JQ1) [1]: 2.047
Postn value_2 (Day_6_JQ1) [1]: 58.0905
Prelid2 value_2 (Day_6_JQ1) [1]: 1.71
Prkar1b value_2 (Day_6_JQ1) [1]: 1.1011
Pstpip1 value_2 (Day_6_JQ1) [1]: 0.2607
Ptgs2 value_2 (Day_6_JQ1) [1]: 2.221
Ptprn value_2 (Day_6_JQ1) [1]: 5.204
Rap1gap2 value_2 (Day_6_JQ1) [1]: 2.58
Rasl12 value_2 (Day_6_JQ1) [1]: 0.3063
Rgs4 value_2 (Day_6_JQ1) [1]: 2.345
Saa3 value_2 (Day_6_JQ1) [1]: 10.7546
Serpinb9b value_2 (Day_6_JQ1) [1]: 4.136
Serpinf1 value_2 (Day_6_JQ1) [1]: 66.5572
Sertad4 value_2 (Day_6_JQ1) [1]: 0.6904
Slc16a3 value_2 (Day_6_JQ1) [1]: 10.7025
Sorcs2 value_2 (Day_6_JQ1) [1]: 0.1588
Spon2 value_2 (Day_6_JQ1) [1]: 12.3682
Srpx2 value_2 (Day_6_JQ1) [1]: 2.998
Stra6 value_2 (Day_6_JQ1) [1]: 0.07484
Syt13 value_2 (Day_6_JQ1) [1]: 6.257
Tfpi2 value_2 (Day_6_JQ1) [1]: 4.486
Thy1 value_2 (Day_6_JQ1) [1]: 2.222
Tll1 value_2 (Day_6_JQ1) [1]: 0.3916
Tmeff1 value_2 (Day_6_JQ1) [1]: 5.181
Tmem200a value_2 (Day_6_JQ1) [1]: 0.3192
Tnfsf8 value_2 (Day_6_JQ1) [1]: 0.1581
Tnfsf13b value_2 (Day_6_JQ1) [1]: 1.119
Tnfsf15 value_2 (Day_6_JQ1) [1]: 0.07599
Tnfsf18 value_2 (Day_6_JQ1) [1]: 0.24
Trpc6 value_2 (Day_6_JQ1) [1]: 0.05189
Wbscr17 value_2 (Day_6_JQ1) [1]: 0.7256
Wisp1 value_2 (Day_6_JQ1) [1]: 4.262
Wisp2 value_2 (Day_6_JQ1) [1]: 1.369
Wnt11 value_2 (Day_6_JQ1) [1]: 1.299
Zfp827 value_2 (Day_6_JQ1) [1]: 0.4625
1110003E01Rik value_2 (mRNA-Seq, sample Day_6_JQ1): 69.1288
1600014C10Rik value_2 (mRNA-Seq, sample Day_6_JQ1): 21.437
2310022B05Rik value_2 (mRNA-Seq, sample Day_6_JQ1): 132.474
Adam15 value_2 (mRNA-Seq, sample Day_6_JQ1): 78.5951
Afap1l2 value_2 (mRNA-Seq, sample Day_6_JQ1): 58.9193
Ahdc1 value_2 (mRNA-Seq, sample Day_6_JQ1): 13.24
Apln value_2 (mRNA-Seq, sample Day_6_JQ1): 16.0329
Arhgap11a value_2 (mRNA-Seq, sample Day_6_JQ1): 12.9839
Arhgef17 value_2 (mRNA-Seq, sample Day_6_JQ1): 35.1441
Aurkb value_2 (mRNA-Seq, sample Day_6_JQ1): 18.2306
BC018242 value_2 (mRNA-Seq, sample Day_6_JQ1): 17.3751
BC031353 value_2 (mRNA-Seq, sample Day_6_JQ1): 10.0028
BC046404 value_2 (mRNA-Seq, sample Day_6_JQ1): 27.3155
Bambi value_2 (mRNA-Seq, sample Day_6_JQ1): 20.2742
Basp1 value_2 (mRNA-Seq, sample Day_6_JQ1): 173.108
Bicc1 value_2 (mRNA-Seq, sample Day_6_JQ1): 86.5801
Bphl value_2 (mRNA-Seq, sample Day_6_JQ1): 18.4476
C330027C09Rik value_2 (mRNA-Seq, sample Day_6_JQ1): 10.1673
Cadm4 value_2 (mRNA-Seq, sample Day_6_JQ1): 23.19
Cbx5 value_2 (mRNA-Seq, sample Day_6_JQ1): 28.9059
